From PubChem BioAssay (NCI) come the findings set out here.

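Five compound concentrations were applied to cells in 96-well plates for 48 hours; endpoints were derived by simple linear interpolation of the resulting dose-response curve. GI50 = concentration required for 50% inhibition of growth. TGI marks complete inhibition of growth.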

What all share (assay): NCI tumour cell line growth inhibition, 48 h
Assay [1] relates to SR leukemia.
Assay [2] has as its system NCI-H23 lung.
The test system of assay [3] is 786-0 renal.
Assay [4] concerns HCT-15 colon.
Assay [5] relates to NCI-H460 lung.
Assay [6] has as its system COLO 205 colon.
Assay [7] relates to MDA-MB-231 breast.
The test system of assay [8] is M14 melanoma.
The test system of assay [9] is SK-OV-3 ovarian.
For assay [10], the system named is A498 renal.

For the compound `[N-]=[N+]=NC(c1cn(C2CC(O)C(CO)O2)c(=O)[nH]c1=O)C(Cl)Br` (stereo not drawn), the TGI in assay [1], in [2], in assay [3], in assay [4], in [5] and in [6] was greater than 100 µM each time.
For the compound `O=[N+]([O-])/C=C/c1c(Cl)cccc1Cl`, the TGI in [7] amounted to 4.26 µM; in assay [2], 16.8 µM; in [8] it was 4.87 µM; in assay [9], 35.5 µM; in assay [10], 30 µM; in [3], 1.52 µM. Further, the results for the TGI in assay [4], in assay [5] and in [6] were 5.04 µM, 21 µM and 1.76 µM, respectively.
Regarding `CO/N=C(\COc1ccc2c(=O)c3ccccc3oc2c1)c1ccccc1`, the GI50 in assay [7] was 25.2 µM; in assay [2], greater than 100 µM; in assay [8] it was 73.5 µM; in [9], 29.7 µM; in [10] it was 20.3 µM; in [3], 25.4 µM. In addition, the GI50 is 51.9 µM in assay [4], 38.9 µM in [5] and greater than 100 µM in assay [6]. Moreover, the TGI in assay [7] was 57.1 µM; in [2], greater than 100 µM; in [8], greater than 100 µM; in assay [9] it was 77 µM; in assay [10], 47.7 µM; in assay [3], 72.5 µM. For the same compound, the TGI in [4], in assay [5] and in [6] was greater than 100 µM each time.
In the case of `NC(=N\N=C/c1ccc(O)cc1)/C(N)=N\N=C/c1ccc(O)cc1`, the GI50 is 10.7 µM in assay [7]; greater than 100 µM in assay [2]; 5.56 µM in assay [8]; 44.8 µM in assay [9]; greater than 100 µM in assay [10]; 21.1 µM in assay [3]. Further, the GI50 in assay [5] is 13.8 µM; in assay [6], greater than 93.5 µM. Also, the TGI in [7], in assay [2], in [8], in assay [9], in assay [10] and in assay [3] was greater than 100 µM throughout. For the same compound, the TGI in [4], in [5] and in [6] was greater than 100 µM in each case.
Consider `O=C1C2C(C(=O)N1c1ccccc1)C1c3ccccc3C2C2C(=O)N(c3ccccc3)C(=O)C21` (stereo not drawn), for which the TGI in assay [2], in assay [8], in assay [9], in assay [10], in assay [3] and in assay [4] was greater than 100 µM in each case. Also, the TGI in [5] and in assay [6] was greater than 100 µM throughout.
Consider `Cc1cc(N(CCC#N)S(=O)(=O)c2ccccc2)ccc1/C=C1\N=C(c2ccc(Cl)cc2)OC1=O`, for which the TGI in [2], in [8], in [10], in [3], in [4] and in assay [5] was greater than 100 µM in each case. Also, the TGI in assay [6] was greater than 100 µM.
For `COC1C(OC(=O)c2ccc(C)[nH]2)C(O)C(Oc2ccc3c(O)c(NC(=O)c4c[nH]c(C(=O)Nc5c(O)c6ccc(OC7OC(C)(C)C(OC)C(OC(=O)c8ccc(C)[nH]8)C7O)c(C)c6oc5=O)c4C)c(=O)oc3c2C)OC1(C)C` (stereo not drawn), the TGI in assay [2] turned out to be 3.84 µM; in assay [9], 4.58 µM; in assay [10], 4.8 µM; in assay [3], 5.42 µM; in [4] it was 7.06 µM; in assay [5], 6.62 µM. The same compound came in with a TGI in [6] of 4.38 µM.
Consider `O=c1cc(-c2ccccn2)[nH]c2cccc(F)c12`, for which the TGI in assay [1], in assay [2], in assay [8], in [9], in [3] and in assay [5] was greater than 100 µM in each case. The TGI in assay [6] was greater than 100 µM.
For `COc1cc(CNc2nc3c(N)cc(C(F)(F)F)cc3nc2-c2ccccc2)cc(OC)c1OC`, the TGI in assay [2], in assay [8], in assay [9], in assay [10], in assay [3] and in assay [4] was greater than 100 µM in each case. In addition, the TGI in assay [5] and in assay [6] was greater than 100 µM in each case. The GI50 in [9] is greater than 100 µM.
As for `CCO/C=C1\N=C(c2ccc(Cl)c(Cl)c2)OC1=O`, the TGI in assay [2], in assay [8], in assay [10], in assay [3], in assay [4] and in assay [5] was greater than 100 µM in each case. Moreover, the TGI in assay [6] was greater than 100 µM.
With `Cc1cc2c(c(C(N)=O)c1C)-c1cccc(F)c1C2=O`, the TGI in [2], in [8], in assay [9], in assay [10], in assay [3] and in [4] was greater than 100 µM in each case. The TGI in assay [5] and in assay [6] was greater than 100 µM throughout.
Consider `OCCCCC#Cc1ccccc1C#Cc1ccc(O)cc1`, for which the GI50 is 7.55 µM in assay [7]; 14.3 µM in [2]; 17.8 µM in assay [8]; 20 µM in assay [9]; 20.7 µM in assay [10]; 19.4 µM in assay [3]. Also, the GI50 in assay [4] was 14.1 µM; in assay [5], 20.6 µM; in assay [6], 21.6 µM. In addition, the TGI in assay [7] was determined as 21.4 µM; in assay [2], 28.7 µM; in [8], 36 µM; in assay [9] it was 40.2 µM; in assay [10], 38.5 µM; in [3], 36.2 µM. Besides, the results for the TGI in [4], in [5] and in assay [6] were 28 µM, 48.6 µM and 45.9 µM, respectively.
Consider `CCC(=O)N1C/C(=C/c2ccc(Cl)cc2)C(=O)/C(=C/c2ccc(Cl)cc2)C1`, for which the GI50 was 1.05 µM in assay [7]; 1.44 µM in assay [2]; 0.992 µM in assay [8]; 1.83 µM in assay [9]; 1.5 µM in assay [10]; 0.332 µM in assay [3]. Besides, the values for the GI50 in [4], in assay [5] and in assay [6] were 0.386 µM, 1.12 µM and 0.757 µM, respectively. Further, the TGI in assay [7] stood at 2.9 µM; in [2], 3.74 µM; in assay [8] it was 2.6 µM; in assay [9], 3.76 µM; in assay [10], 3.04 µM; in assay [3], 1.22 µM. The values for the TGI in [4], in [5] and in [6] were 1.25 µM, 3.56 µM and 1.95 µM, respectively.
For the compound `c1ccc(-c2nn3c(c2-c2ccnc4cc(OCCN5CCOCC5)ccc24)CCC3)nc1`, the GI50 is greater than 100 µM in assay [7]; greater than 80.6 µM in [2]; 70.8 µM in assay [8]; greater than 100 µM in assay [9]; greater than 100 µM in [10]; greater than 100 µM in [3]. The values for the GI50 in [4], in assay [5] and in [6] were 31.5 µM, 33.6 µM and 41.6 µM, respectively. Moreover, the TGI in assay [7], in [2], in assay [8], in [9], in assay [10] and in assay [3] was greater than 100 µM in each case. In addition, the TGI in assay [4], in [5] and in assay [6] was greater than 100 µM in each case.
Take `C#CC1(O)CCC2C3CCc4cc(Oc5nc(F)nc(-c6c7ccccc7c7n6CCS7)n5)ccc4C3CC[C@@]21C` (stereo partly drawn): the TGI in assay [1] is 92.3 µM; in [2], 42.7 µM; in assay [8], 40.5 µM; in assay [3], greater than 100 µM; in [4], 54.3 µM; in [5], greater than 100 µM. For the same compound, the TGI in [6] was found to be 70 µM.
With `COc1ccccc1N=Nc1c(-c2ccccc2)nn(C(=O)CC(=O)Nc2cccc(C)c2)c1-c1ccccc1`, the TGI in [2], in [8], in assay [10], in assay [3], in assay [4] and in assay [5] was greater than 100 µM throughout. This compound also showed a TGI in [6] greater than 100 µM.
For `COC(=O)CCC(NC(=S)N/N=C(\C)c1ccc[nH]1)C(=O)OC` (stereo not drawn), the TGI in [2], in [8], in assay [9], in assay [10], in [3] and in assay [4] was greater than 100 µM each time. Moreover, the TGI in assay [5] and in assay [6] was greater than 100 µM throughout.
Consider `ClC(Cl)=C(Cl)C1(Cl)CC1COCc1ccccc1` (stereo not drawn), for which the TGI in [2], in assay [8], in [9], in assay [10], in [3] and in assay [4] was greater than 100 µM in each case. In addition, the TGI in assay [5] was greater than 100 µM; in [6], 61.1 µM.
As for `COc1ccc2c(c1)/C(=C\c1ccncc1)C(=O)N2`, the GI50 in assay [7] is 17.2 µM; in assay [2] it was 12.3 µM; in [8] it was 8.33 µM; in assay [9] it was 19.5 µM; in assay [3], 12.5 µM; in [4], 2.97 µM. In addition, the GI50 was 6.68 µM in assay [5] and 11.9 µM in assay [6]. Besides, the TGI in [7] stood at 36.7 µM; in assay [2] it was 43.5 µM; in assay [8], 26 µM; in [9], 79.9 µM; in [3], 29.3 µM; in assay [4] it was 13.1 µM. For the same compound, the TGI was greater than 100 µM in assay [5] and 44.7 µM in assay [6].
Turning to `O=c1cccccc1[O-].O=c1cccccc1[O-].O=c1cccccc1[O-].[Eu+3]`, the TGI in assay [2], in assay [8], in assay [9], in assay [10], in [3] and in assay [4] was greater than 100 µM in each case. Besides, the TGI in assay [5] is greater than 100 µM. Further, the GI50 in assay [10] was 78.4 µM.
In the case of `CCC[CH2][Sn]([CH2]CCC)([O]C(=O)c1cc(OC)c(OC)cc1OC)[O][Sn]([CH2]CCC)([CH2]CCC)[O]C(=O)c1cc(OC)c(OC)cc1OC`, the GI50 in assay [2] was 0.313 µM; in assay [8], 0.282 µM; in assay [9] it was 1.21 µM; in [10] it was 0.508 µM; in assay [3] it was 0.24 µM; in assay [4], 0.497 µM. For the same compound, the GI50 in assay [5] is 1.3 µM; in assay [6] it was 0.381 µM. The TGI turned out to be 1.19 µM in assay [2]; 0.797 µM in [8]; 2.58 µM in [9]; 1.76 µM in assay [10]; 0.698 µM in [3]; 1.71 µM in assay [4]. The results for the TGI in [5] and in assay [6] were 2.85 µM and 1.32 µM, respectively.
In the case of `N#Cc1nc(-c2ccc(F)cc2)oc1S(=O)(=O)N1CCCCC1`, the GI50 in [7] was 1.86 µM; in assay [2], 2.14 µM; in [8] it was 1.77 µM; in assay [9], 24.3 µM; in [10], 14.1 µM; in assay [3], 1.8 µM. Also, the GI50 in assay [4] was 1.59 µM; in [5], 4.77 µM; in [6], 2.07 µM. The TGI in assay [7] was found to be 3.54 µM; in [2], 4.92 µM; in [8], 3.87 µM; in assay [9] it was 91.2 µM; in assay [10], 27.4 µM; in [3] it was 3.53 µM. Besides, the TGI in [4] stood at 3.37 µM; in [5], 19.6 µM; in assay [6], 4.2 µM.
Consider `CNC(=O)NCC1OC(n2cnc3c(NC(=O)Nc4ccccc4)ncnc32)C(O[Si](C)(C)C(C)(C)C)C1O[Si](C)(C)C(C)(C)C` (stereo not drawn), for which the GI50 in assay [7] is 2.61 µM; in assay [2], 3.17 µM; in assay [8], 4.33 µM; in assay [9] it was 6.88 µM; in [10], 2.03 µM; in assay [3] it was 2.04 µM. Further, the values for the GI50 in [4], in assay [5] and in assay [6] were 3.62 µM, 1.72 µM and 1.89 µM, respectively. Besides, the TGI was 6.12 µM in assay [7]; 9.07 µM in [2]; 18.5 µM in [8]; greater than 100 µM in [9]; 4.96 µM in [10]; 3.71 µM in assay [3]. Also, the TGI was greater than 100 µM in [4], 3.49 µM in [5] and 3.36 µM in assay [6].
